{"source": "patent US3982931A", "about": "“N,N-di-sec.butyl-benzamide herbicides” (priority 1967, dated 1976)", "key": {"[1]": {"tested_on": "avena sativa (oats)", "experiment": "activity on agrarian species, soil treatment one day after sowing", "assay_type": "in vivo, Avena sativa L."}, "[2]": {"tested_on": "phaseolus vulgaris (bean)", "experiment": "activity on agrarian species, soil treatment one day after sowing", "assay_type": "in vivo, Phaseolus vulgaris L.", "how_it_was_run": "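Product applied to soil one day after sowing at 1, 3, 6, 8, 10, 12 and 14 kg/ha. Effect on bean plants scored against control on a 0–4 scale, 4 meaning no germination or total containment at emergence; intermediate activity recorded with both values.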"}, "[3]": {"tested_on": "pisum sativum L. (pea)", "experiment": "activity on agrarian species, soil treatment one day after sowing", "assay_type": "in vivo"}, "[4]": {"tested_on": "triticum vulgare L. (wheat)", "experiment": "activity on agrarian species, soil treatment one day after sowing", "assay_type": "in vivo", "how_it_was_run": "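Pre-emergence soil treatment one day after sowing of wheat, product applied at 1, 3, 6, 8, 10, 12 and 14 kg/ha. Activity scored visually on a 0–4 scale relative to untreated control (0 = none, 4 = no germination/total containment); intermediate activity recorded as both values.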"}, "[5]": {"tested_on": "Echinocloa crus-galli", "experiment": "Example 2 basin test, rice-field soil, granular composition", "assay_type": "in vivo", "conditions": "4 - 6 - 8 kg/ha", "description": "(§1) Into 2 sq.m. basins containing rice-field soil were sown rice and Echinocloa crus-galli. After having submerged the soil with 10 cm of water, treatments were carried out by distributing uniformly on the soil a granular composition containing 5% of PA 300 and 95% of bentonite in doses equal to 0 - 4 - 6 - 8 kg of active principle per hectar."}, "[6]": {"tested_on": "rice", "experiment": "Example 2 basin test, rice-field soil, granular composition", "assay_type": "in vivo", "conditions": "4 - 6 - 8 kg/ha", "description": "as §1"}, "[7]": {"tested_on": "zea mais L. (corn)", "experiment": "activity on agrarian species, soil treatment one day after sowing", "assay_type": "in vivo", "how_it_was_run": "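Pre-emergence soil application one day after sowing at 1, 3, 6, 8, 10, 12 and 14 kg/ha. Crop damage scored visually against untreated control on a 0–4 scale (0 = no effect, 4 = no germination or total containment at emergence); intermediate effects recorded with both scores.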"}, "[8]": {"tested_on": "setaria glauca L.", "experiment": "herbicidal activity, soil treatment one day after sowing", "assay_type": "in vivo"}, "[9]": {"tested_on": "vicia sativa L.", "experiment": "herbicidal activity, soil treatment one day after sowing", "assay_type": "in vivo", "how_it_was_run": "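Pre-emergence soil treatment one day after sowing; activity scored visually on a […] scale against untreated control, from slight difference (1) to no germination or total containment at emergence (4); intermediate activity recorded as both classes, preeminent value first.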"}, "[10]": {"tested_on": "chenopodium album L.", "experiment": "herbicidal activity, soil treatment one day after sowing", "assay_type": "in vivo"}, "[11]": {"tested_on": "echinocloa crus-galli R.S.", "experiment": "herbicidal activity, soil treatment one day after sowing", "assay_type": "in vivo"}, "[12]": {"tested_on": "amaranthus retroflexus L.", "experiment": "herbicidal activity, soil treatment one day after sowing", "assay_type": "in vivo"}, "[13]": {"tested_on": "oryza sativa L. (rice)", "experiment": "activity on agrarian species, soil treatment one day after sowing", "assay_type": "in vivo", "how_it_was_run": "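Pre-emergence soil treatment of rice applied one day after sowing at 1, 3, 6, 8, 10, 12 and 14 kg/ha. Crop injury scored against untreated control on a 0–4 scale, 4 being no germination or total containment at emergence; intermediate activity recorded as both adjacent classes.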"}, "[14]": {"tested_on": "artemisia vulgaris L.", "experiment": "herbicidal activity, soil treatment one day after sowing", "assay_type": "in vivo"}, "[15]": {"experiment": "toxicity towards warm-blooded animals, LD 50 per os on rat", "conditions": "in vivo, po"}}}
{"compound": "CCC(C)N(C(=O)c1cc(Cl)cc(Cl)c1Cl)C(C)CC", "note": "(stereo not drawn) [PA300, 2,3,5-trichloro-N,N-di-sec.butyl-benzamide]", "values": [{"measurement": "activity on G, 0-4 scale", "setting": "[1]; 3 kg/ha", "result": 0}, {"measurement": "activity on G, 0-4 scale", "setting": "[1]; 6 kg/ha", "result": 1}, {"measurement": "activity on I, 0-4 scale", "setting": "[2]; 3 kg/ha", "result": 0}, {"measurement": "activity on I, 0-4 scale", "setting": "[2]; 6 kg/ha", "result": 0}, {"measurement": "activity on L, 0-4 scale", "setting": "[3]; 3 kg/ha", "result": 0}, {"measurement": "activity on L, 0-4 scale", "setting": "[3]; 6 kg/ha", "result": 0}, {"measurement": "activity on N, 0-4 scale", "setting": "[4]; 3 kg/ha", "result": 0}, {"measurement": "activity on N, 0-4 scale", "setting": "[4]; 6 kg/ha", "result": 0}, {"measurement": "development of Echinocloa crus-galli plants", "setting": "[5]", "result": "no Echinocloa crus-galli plant developed"}, {"measurement": "development of rice", "setting": "[6]", "result": "the rice developed regularly"}, {"measurement": "activity on O, 0-4 scale", "setting": "[7]; 3 kg/ha", "result": 0}, {"measurement": "activity on O, 0-4 scale", "setting": "[7]; 6 kg/ha", "result": 0}, {"measurement": "activity on E, 0-4 scale", "setting": "[8]; 1 kg/ha", "result": "3-4"}, {"measurement": "activity on E, 0-4 scale", "setting": "[8]; 2 kg/ha", "result": "4-3"}, {"measurement": "activity on E, 0-4 scale", "setting": "[8]; 4 kg/ha", "result": 4}, {"measurement": "activity on E, 0-4 scale", "setting": "[8]; 6 kg/ha", "result": 4}, {"measurement": "activity on F, 0-4 scale", "setting": "[9]; 1 kg/ha", "result": 0}, {"measurement": "activity on F, 0-4 scale", "setting": "[9]; 2 kg/ha", "result": 0}, {"measurement": "activity on F, 0-4 scale", "setting": "[9]; 4 kg/ha", "result": 0}, {"measurement": "activity on F, 0-4 scale", "setting": "[9]; 6 kg/ha", "result": 0}, {"measurement": "activity on C, 0-4 scale", "setting": "[10]; 1 kg/ha", "result": "0-1"}, {"measurement": "activity on C, 0-4 scale", "setting": "[10]; 2 kg/ha", "result": 1}, {"measurement": "activity on C, 0-4 scale", "setting": "[10]; 4 kg/ha", "result": "1-2"}, {"measurement": "activity on C, 0-4 scale", "setting": "[10]; 6 kg/ha", "result": "1-2"}, {"measurement": "activity on D, 0-4 scale", "setting": "[11]; 1 kg/ha", "result": 3}, {"measurement": "activity on D, 0-4 scale", "setting": "[11]; 2 kg/ha", "result": "3-4"}, {"measurement": "activity on D, 0-4 scale", "setting": "[11]; 4 kg/ha", "result": "4-3"}, {"measurement": "activity on D, 0-4 scale", "setting": "[11]; 6 kg/ha", "result": 4}, {"measurement": "activity on A, 0-4 scale", "setting": "[12]; 1 kg/ha", "result": "0-1"}, {"measurement": "activity on A, 0-4 scale", "setting": "[12]; 2 kg/ha", "result": 1}, {"measurement": "activity on A, 0-4 scale", "setting": "[12]; 4 kg/ha", "result": 1}, {"measurement": "activity on A, 0-4 scale", "setting": "[12]; 6 kg/ha", "result": 1}, {"measurement": "activity on P, 0-4 scale", "setting": "[13]; 3 kg/ha", "result": 0}, {"measurement": "activity on P, 0-4 scale", "setting": "[13]; 6 kg/ha", "result": 0}, {"measurement": "activity on B, 0-4 scale", "setting": "[14]; 1 kg/ha", "result": "0-1"}, {"measurement": "activity on B, 0-4 scale", "setting": "[14]; 2 kg/ha", "result": "1-0"}, {"measurement": "activity on B, 0-4 scale", "setting": "[14]; 4 kg/ha", "result": 1}, {"measurement": "activity on B, 0-4 scale", "setting": "[14]; 6 kg/ha", "result": 1}]}
{"compound": "CCC(C)N(CC)C(=O)c1ccc(Cl)c(Cl)c1", "note": "(stereo not drawn) [PA631, 3,4-dichloro-N-ethyl,N-sec.butyl-benzamide]", "values": [{"measurement": "activity on E, 0-4 scale", "setting": "[8]; 6 kg/ha", "result": 3}, {"measurement": "LD50", "setting": "[15]", "result": 930, "unit": "mg/kg"}, {"measurement": "activity on F, 0-4 scale", "setting": "[9]; 6 kg/ha", "result": "0-1"}, {"measurement": "activity on C, 0-4 scale", "setting": "[10]; 6 kg/ha", "result": 3}, {"measurement": "activity on D, 0-4 scale", "setting": "[11]; 6 kg/ha", "result": 3}, {"measurement": "activity on A, 0-4 scale", "setting": "[12]; 6 kg/ha", "result": 2}, {"measurement": "activity on B, 0-4 scale", "setting": "[14]; 6 kg/ha", "result": 2}]}
